{"source": "paper PMC12428754", "about": "“Testing Strategies for Metabolite-Mediated Neurotoxicity” (International Journal of Molecular Sciences, 2025)", "key": {"LUHMES cells [1]": {"test_system": "LUHMES cells", "assay": "MitoMet (UKN4b) neurite outgrowth assay", "format": "cell-based, human", "settings": "for IC25: Homo sapiens, benchmark response 25%, neurite area, 24 h exposure, three independent experiments, read-out: BMC25 neurite outgrowth; for fold change between BMC25 values of parent and metabolite (potency ratio, parent divided by metabolite): listed under the metabolite, >1 = metabolite more potent", "protocol": "Figure 1 (A) A strategy scheme to assess metabolite-mediated hazard in NAMs used for neurotoxicity or developmental neurotoxicity. Parent and metabolite compounds are tested separately in the respective assay. This strategy is applicable when there is prior knowledge of metabolite formation. A decision rule based on the relative toxicities (X) of the parent and metabolite may be applied to decide whether next-generation risk assessment (NGRA) should be applied to the metabolite. The value of X may be defined according to the problem formulation and the NAM used. (B) An assay scheme of the neurite outgrowth assay used here for exemplification: Proliferating LUHMES cells were replated one day before differentiation was initiated (day −1). After two days (day 2) in differentiation medium, the cells were replated into assay format (96-well). At this point, neurite growth was re-initiated. The cells were treated with toxicants 1 h after replating. Neurite outgrowth and viability were determined 24 h later, using automated high content imaging. (C) Comparison of neurite outgrowth of cultures treated with bromethalin and desmethyl-bromethalin one exemplary parent/metabolite pair (chemical structures shown). […] The curves are based on data from three independent experiments and were fitted using a four-parameter Hill function. Data points shown are arithmetic means of data from independent experiments ±SEM. In each independent experiment, the technical replicates were measured and averaged. A benchmark response (BMR) of 25% was used as specified in the detailed assay description, and the respective benchmark concentration (BMC25) was determined. […] (D) Microscopic images of calcein-stained LUHMES cells. Similar images are used for neurite quantification. Treatment with 40 nM of the parent (left) or metabolite (right). The scale bar in orange corresponds to 50 µm. […] It stands under panel C and to the right of panel D, and was assigned to C.\n(§1) The MitoMet neurite outgrowth assay was performed as previously described. In brief, all cell culture dishes and flasks were pre-coated with 50 μg/mL poly-l-ornithine (PLO) and 1 μg/mL fibronectin. Proliferating LUHMES cells were maintained in AdvDMEM/F12 containing L-glutamine (2 mM), N2 supplement (1x), and FGF (40 ng/mL). For pre-differentiation, the cells were replated at a density of 46,000 cells/cm^2 one day prior to the induction of differentiation (defined as the day of differentiation, Day −1). Differentiation was initiated by exchanging the culture medium for AdvDMEM/F12 supplemented with L-glutamine (2 mM), N2 supplement (1x), dibutyryl-cAMP (1 mM), tetracycline (1 µg/mL), and GDNF (2 ng/mL). After two days of differentiation (Day 2), the cells were replated (100,000 cells/cm^2) into 96-well plates. The final assay medium consisted of glucose-free AdvDMEM/F12 supplemented with galactose (18 mM), L-glutamine (2 mM), and tetracycline (1 µg/mL). One hour after replating, the cells were treated with a 10× concentrated stock solution of the test compound. Neurite outgrowth and viability were determined 24 h later, using automated high content imaging.\nThe image acquisition and analysis were conducted according to established protocols. The cells were stained with Hoechst H-33342 (1 µg/mL) to visualise nuclei and calcein-AM (1 µM) to label viable cell structures. Fluorescent images were acquired using an automated imaging system."}, "[2]": {"settings": "for extent of metabolite formation / cofactor (NADPH) dependence of metabolite formation: result in words; for metabolite formation over time: samples every 30 min for 2 h; for cofactor (NADPH) dependence of metabolite formation: human liver microsomes ± NADPH", "protocol": "Parent compounds were incubated at final concentrations of either (a) 5 µM or (b) 50 µM (for chlorfenapyr) with pooled human liver microsomes (HLM; mixed gender, n = 150; BioIVT; West Sussex, UK) at corresponding protein concentrations of (a) 0.52 mg/mL or (b) 5.2 mg/mL. Incubations were performed in the absence or presence of NADPH at final concentrations of (a) 1 mM or (b) 10 mM, respectively, using a thermostated orbital shaker at 37 °C and 150 rpm. Reactions were terminated at designated time points by the addition of acetonitrile/methanol (3:1, v/v). Samples were then centrifuged at 10,000× g for 10 min, and the resulting supernatants were analysed by LC-MS/MS.\nAll analytes were measured using an Acquity UPLC H-Class system coupled to a Xevo TQ-S micro mass spectrometer (Waters). Chromatographic separation was performed on an Acquity UPLC BEH C18 column (2.1 × 50 mm, 1.7 µm) with a mobile phase consisting of 0.1% formic acid in water (A) and acetonitrile (B). Unless otherwise stated, the column was maintained at 30 °C and operated at a flow rate of 0.4 mL/min. The standard gradient was 95% A from 0 to 1.0 min, decreased to 2% A by 1.5 min, held until 4.0 min, returned to 95% A at 4.3 min, and held until 5.0 min. […] The mass spectrometer operated in electrospray ionisation (ESI) mode. Compound-specific MRM transitions, cone voltages, and collision energies for all analytes are listed in Supplementary Table S2.\nInt. J. Mol. Sci. 2025, 26, x FOR PEER REVIEW 3 of 5\nSupplementary Figure S3: Quantification of specific metabolite formation from selected parent/metabolite pairs in a human liver microsomes (HLM) assay. Parent compounds (PAR) were incubated at a concentration of 5 µM (50 µM for chlorfenapyr) with HLM in the absence (dashed line, open symbols) or presence of NADPH (solid lines, closed symbols). Samples were taken every 30 min for 2 h (+NADPH) or at 2 h only (- NADPH). The remaining fraction of the PAR was quantified for each sample. Additionally, one key metabolite (MET) was measured. Its amount is expressed as fraction of PAR converted to MET, assuming an equimolar PAR to MET reaction, 100 % indicates a complete conversion. The middle-dashed line indicates a metabolite formation of at least 10% of PAR. Data are means of two measurements n.d. = not detected.\n(1 picture or pasted object on this page, not shown here)"}, "LUHMES cells [3]": {"test_system": "LUHMES cells", "protocol": "Figure 4 A strategy to incorporate metabolic competence into in vitro DNT testing methods. (A) A schematic overview of a sequential metabolism and testing approach. The “metabolisation module” uses hepatic post-mitochondrial fractions (S9) to generate metabolite mixtures in the presence or absence of cofactors (NADPH, glucose-6-phosphate, MgCl2). These metabolite mixtures are tested in the “testing module” in a concentration-dependent manner after serial pre-dilutions. Metabolite mixtures are added as a fraction of 10% to the media volume of the “testing module”. The testing module may be a cell-based neurotoxicity (NT) or developmental neurotoxicity (DNT) assay, such as the neurite outgrowth or migration assay. Here, the Mito-Met neurite outgrowth assay, as in Figure 1, was used. […] The curves represent data from three independent experiments and were fitted using a four-parameter Hill function. […] The data represent three independent experiments. The indicated concentrations are “testing module” concentrations.\nTo further evaluate our modular pre-activation strategy for identifying metabolite-mediated hazard, we tested a broader panel of compounds. For each compound (parent), a single concentration was used in the metabolisation module. The metabolite mixtures were generated in the absence or presence of NADPH. These metabolite mixtures were serially diluted and assessed using the MitoMet neurite outgrowth assay. As a measure of potency, EC25 values were determined, and potency ratios were calculated to compare the effects of NADPH-dependent versus NADPH-independent metabolism.\nFigure 5 The effect of NADPH-dependent hepatic metabolism on the DNT of selected compounds. (A) A strategy scheme to assess the effect of metabolic enzymes on the outcome of cell-based DNT assays. Metabolite mixtures are generated using the NADPH-(in)dependent metabolic activity of S9. NADPH-independent metabolism is shown in green (light grey). NADPH-dependent metabolism is shown in red (dark grey). […] (B–F) The concentration-dependent effect of metabolite mixtures on neurite outgrowth was measured as in Figure 1, with the following modifications: red-fluorescent-protein (RFP)-expressing LUHMES cells were used. As the assay endpoint, the RFP fluorescence of neurites was used instead of calcein staining. The curves represent data from three independent experiments and were fitted using a four-parameter Hill function. From this, an EC25 was calculated. Bold numbers indicate the fold changes between EC25 values of the NADPH-(in)dependent metabolite mixtures, with the direction of the arrow reflecting the shift in sensitivity. Note that the x-axes indicate nominal concentrations of parent compounds. […] Similar images were used for neurite quantification. The right image (red frame) of the pairs was obtained with NADPH. The black arrowheads above the curves indicate the experimental conditions used to record images. The scale bar in orange corresponds to 50 µm.\nas §1, with “plates.” for “plates. The final assay medium consisted of glucose-free AdvDMEM/F12 supplemented with galactose (18 mM), L-glutamine (2 mM), and tetracycline (1 µg/mL). One hour after replating, the cells were treated with a 10× concentrated stock solution of the test compound. Neurite outgrowth and viability were determined 24 h later, using automated high content imaging.”"}, "[4]": {"settings": "human liver microsomes, listed under the metabolite"}}, "note": "Like-named read-outs stand apart in the source and are kept apart here."}
{"smiles": "C[C@H]1[C@H](OC(=O)CCC(=O)O)O[C@@H]2O[C@@]3(C)CC[C@H]4[C@H](C)CC[C@@H]1[C@@]24OO3", "note": "[Artesunate]", "values": [{"measurement": "IC25", "setting": "LUHMES cells [1]", "result": 3.4, "unit": "µM"}, {"measurement": "extent of metabolite formation", "setting": "[2]; human liver microsomes", "result": "completely converted"}]}
{"smiles": "O=C(CCC[n+]1ccc(-c2ccc(Cl)cc2)cc1)c1ccc(F)cc1", "note": "[HPP+, haloperidol pyridinium ion]", "values": [{"measurement": "IC25", "setting": "LUHMES cells [1]", "result": 7.1, "unit": "µM"}, {"measurement": "fold change between BMC25 values of parent and metabolite (potency ratio, parent divided by metabolite)", "setting": "LUHMES cells [1]", "result": 4, "unit": "fold"}, {"measurement": "extent of metabolite formation", "setting": "[2]; human liver microsomes", "result": "only trace amounts"}, {"measurement": "metabolite formation over time", "setting": "[2]; [4]", "result": "time-dependent increase in metabolite formation"}]}
{"smiles": "O=P1(NCCCl)OCCCN1CCCl", "note": "(stereo not shown) [Ifosfamide]", "values": [{"measurement": "fold change between EC25 values of NADPH-independent and NADPH-dependent metabolite mixtures (toxification)", "setting": "LUHMES cells [3]", "result": "> 10", "unit": "x"}]}
{"smiles": "C[C@H]1[C@@H](O)O[C@@H]2O[C@@]3(C)CC[C@H]4[C@H](C)CC[C@@H]1[C@@]24OO3", "note": "[Dihydroartemisinin]", "values": [{"measurement": "IC25", "setting": "LUHMES cells [1]", "result": 1.2, "unit": "µM"}, {"measurement": "fold change between BMC25 values of parent and metabolite (potency ratio, parent divided by metabolite)", "setting": "LUHMES cells [1]", "result": 3, "unit": "fold"}, {"measurement": "cofactor (NADPH) dependence of metabolite formation", "setting": "[2]", "result": "largely independently of NADPH"}, {"measurement": "metabolite formation over time", "setting": "[2]; [4]", "result": "time-dependent increase in metabolite formation"}]}
{"smiles": "CNC(C)Cc1ccc2c(c1)OCO2", "note": "(stereo not shown) [MDMA, methylenedioxymethamphetamine]", "values": [{"measurement": "IC25", "setting": "LUHMES cells [1]", "result": "> 100", "unit": "µM"}]}
{"smiles": "CN1CC=C(c2ccccc2)CC1", "note": "[MPTP, 1-methyl-4-phenyl-tetrahydropyridine]", "values": [{"measurement": "IC25", "setting": "LUHMES cells [1]", "result": "> 100", "unit": "µM"}]}
{"smiles": "CC(N)Cc1ccc(O)c(O)c1", "note": "(stereo not drawn) [α-Methyldopamine]", "values": [{"measurement": "IC25", "setting": "LUHMES cells [1]", "result": 16, "unit": "µM"}, {"measurement": "fold change between BMC25 values of parent and metabolite (potency ratio, parent divided by metabolite)", "setting": "LUHMES cells [1]", "result": "> 6", "unit": "fold"}]}
{"smiles": "COc1ccc2cc3[n+](cc2c1OC)CCc1cc2c(cc1-3)OCO2", "note": "[Berberine]", "values": [{"measurement": "fold change between EC25 values of NADPH-(in)dependent metabolite mixtures (detoxification)", "setting": "LUHMES cells [3]", "result": 5, "unit": "x"}, {"measurement": "effect of metabolisation in the presence of NADPH on toxicity", "setting": "LUHMES cells [3]; result in words", "result": "reduced"}]}
{"smiles": "O=P1(N(CCCl)CCCl)NCCCO1", "note": "(stereo not shown) [Cyclophosphamide]", "values": [{"measurement": "inhibition of neurite outgrowth without preincubation", "setting": "LUHMES cells [3]; 100 µM, 50 µg/mL S9, no preincubation", "result": "No inhibition of neurite outgrowth"}, {"measurement": "reduction of neurite outgrowth", "setting": "LUHMES cells [3]; 100 µM, 50 µg/mL S9, with NADPH, 2 h preincubation", "result": "approximately 90%"}, {"measurement": "neurite toxicity at low S9 concentrations", "setting": "LUHMES cells [3]; 100 µM, S9 <10 µg/mL, 2 h incubation", "result": "did not lead to neurite toxicity"}, {"measurement": "fold change between EC25 values of NADPH-independent and NADPH-dependent metabolite mixtures (toxification)", "setting": "LUHMES cells [3]; rat liver S9 50 µg/mL in testing module, 2 h preincubation, RFP-LUHMES, toxicity increased with NADPH", "result": "> 25", "unit": "x"}]}
{"smiles": "COC(=O)Nc1nc2ccc(Sc3ccccc3)cc2[nH]1", "note": "[Fenbendazole]", "values": [{"measurement": "IC25", "setting": "LUHMES cells [1]", "result": 0.047, "unit": "µM"}]}
{"smiles": "O=C(CCCN1CCC(O)(c2ccc(Cl)cc2)CC1)c1ccc(F)cc1", "note": "[Haloperidol]", "values": [{"measurement": "IC25", "setting": "LUHMES cells [1]", "result": "> 33", "unit": "µM"}]}
{"smiles": "C[n+]1ccc(-c2ccccc2)cc1", "note": "[MPP+, 1-methyl-4-phenylpyridinium]", "values": [{"measurement": "IC25", "setting": "LUHMES cells [1]", "result": 0.12, "unit": "µM"}, {"measurement": "cofactor (NADPH) dependence of metabolite formation", "setting": "[2]", "result": "largely independently of NADPH"}, {"measurement": "metabolite formation over time", "setting": "[2]; [4]", "result": "time-dependent increase in metabolite formation"}, {"measurement": "conversion rate of parent to metabolite", "setting": "[2]; human liver microsomes, up to 2 h, listed under the metabolite", "result": "approximately 10%"}]}
{"smiles": "CCCCNC(=O)n1c(NC(=O)OC)nc2ccccc21", "note": "[Benomyl]", "values": [{"measurement": "IC25", "setting": "LUHMES cells [1]", "result": 3.7, "unit": "µM"}]}
